Laboratory results: patent publication US9518018B2, “3-alkoxy, thioalkyl and amino-4-amino-6-(substituted)picolinates and their use as herbicides” (Dow AgroSciences LLC, priority 2011, dated 2016)

Columns and labels:
[1] = tested on: CHEAL: lambsquarters (Chenopodium album); test: Post-Emergent Test I herbicidal activity; type: in vivo; settings: Chenopodium album, post-emergence, 336 h, read-out: Visual Growth Reduction (%)-14 Days after Application CHEAL; for pest or weed control at 140 g/ha: Table 3, 140 g ai/ha; for pest or weed control at 280 g/ha: Table 3, 280 g ai/ha; for pest or weed control at 70 g/ha: Table 3, 70 g ai/ha
How it was run: (§1)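 Post-emergence foliar application to young greenhouse plants at 187 L/ha, five rates down to 1/16× of the top rate. Percent injury is assessed visually two weeks later against untreated plants.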

[2] = tested on: ORYSA: rice (Oryza sativa); test: Post-Emergent Test I herbicidal activity; type: in vivo; settings: post-emergence, 336 h, read-out: Visual Growth Reduction (%)-14 Days after Application ORYSA; for pest or weed control at 140 g/ha: Table 3, 140 g ai/ha; for pest or weed control at 280 g/ha: Table 3, 280 g ai/ha; for pest or weed control at 70 g/ha: Table 3, 70 g ai/ha
How it was run: as §1

[3] = tested on: ZEAMX: corn (Zea mays); test: Post-Emergent Test I herbicidal activity; type: in vivo; settings: Zea mays, post-emergence, 336 h, read-out: Visual Growth Reduction (%)-14 Days after Application ZEAMX; for pest or weed control at 140 g/ha: Table 3, 140 g ai/ha; for pest or weed control at 280 g/ha: Table 3, 280 g ai/ha; for pest or weed control at 70 g/ha: Table 3, 70 g ai/ha
How it was run: as §1

[4] = tested on: EPHHL: wild poinsettia (Euphorbia heterophylla); test: Post-Emergent Test I herbicidal activity; type: in vivo; settings: post-emergence, 336 h, read-out: Visual Growth Reduction (%)-14 Days after Application EPHHL; for pest or weed control at 140 g/ha: Table 3, 140 g ai/ha; for pest or weed control at 280 g/ha: Table 3, 280 g ai/ha; for pest or weed control at 70 g/ha: Table 3, 70 g ai/ha
How it was run: as §1

[5] = tested on: ABUTH: velvetleaf (Abutilon theophrasti); test: Post-Emergent Test I herbicidal activity; type: in vivo; settings: Abutilon theophrasti, post-emergence, 336 h, read-out: Visual Growth Reduction (%)-14 Days after Application ABUTH; for pest or weed control at 140 g/ha: Table 3, 140 g ai/ha; for pest or weed control at 280 g/ha: Table 3, 280 g ai/ha; for pest or weed control at 70 g/ha: Table 3, 70 g ai/ha
How it was run: as §1

[6] = tested on: CYPES: yellow nutsedge (Cyperus esculentus); test: Post-Emergent Test I herbicidal activity; type: in vivo; settings: post-emergence, 336 h, read-out: Visual Growth Reduction (%)-14 Days after Application CYPES; for pest or weed control at 140 g/ha: Table 3, 140 g ai/ha; for pest or weed control at 280 g/ha: Table 3, 280 g ai/ha; for pest or weed control at 70 g/ha: Table 3, 70 g ai/ha
How it was run: as §1

[7] = tested on: ECHCG: barnyardgrass (Echinochloa crus-galli); test: Post-Emergent Test I herbicidal activity; type: in vivo; settings: post-emergence, 336 h, read-out: Visual Growth Reduction (%)-14 Days after Application ECHCG; for pest or weed control at 140 g/ha: Table 3, 140 g ai/ha; for pest or weed control at 280 g/ha: Table 3, 280 g ai/ha; for pest or weed control at 70 g/ha: Table 3, 70 g ai/ha
How it was run: as §1

Row | melting point | SMILES | pest or weed control at 140 g/ha [1] | pest or weed control at 140 g/ha [2] | pest or weed control at 140 g/ha [3] | pest or weed control at 140 g/ha [4] | pest or weed control at 140 g/ha [5] | pest or weed control at 140 g/ha [6] | pest or weed control at 140 g/ha [7] | other results
1 | 110 to 112 °C | COC(=O)c1nc(-c2ccc3c(c2)OCO3)c(F)c(N)c1OC [Compound 37] | 100% | 0% | 75% | 100% | 55% | 100% | 100% | 
2 | 110.5 to 113 °C | CCc1nc(C(=O)OC)c(OC)c(N)c1F [Compound 13, methyl 4-amino-6-ethyl-5-fluoro-3-methoxypicolinate] |  |  |  |  |  |  |  | pest or weed control at 280 g/ha [1]: 90%; pest or weed control at 280 g/ha [2]: 0%; pest or weed control at 280 g/ha [3]: 0%; pest or weed control at 280 g/ha [4]: 70%; pest or weed control at 280 g/ha [5]: 0%; pest or weed control at 280 g/ha [6]: 0%; pest or weed control at 280 g/ha [7]: 0%
3 | 141 to 143 °C | COC(=O)c1nc(-c2ccc(F)cc2)c(F)c(N)c1OC [Compound 36] | 100% | 0% | 60% | 100% | 100% | 100% | 0% | 
4 | 97 to 99 °C | COC(=O)c1nc(-c2ccc(C(F)(F)F)cc2)c(F)c(N)c1OC [Compound 35] | 100% | 0% | 70% | 100% | 75% | 100% | 80% | 
5 | 116 to 118 °C | COC(=O)c1nc(-c2cc(F)c(Br)cc2F)c(F)c(N)c1OC [Compound 20] |  |  |  |  |  |  |  | pest or weed control at 70 g/ha [1]: 100%; pest or weed control at 70 g/ha [2]: 0%; pest or weed control at 70 g/ha [3]: 80%; pest or weed control at 70 g/ha [4]: 100%; pest or weed control at 70 g/ha [5]: 85%; pest or weed control at 70 g/ha [6]: 50%; pest or weed control at 70 g/ha [7]: 80%
6 | 120 to 123 °C | COC(=O)c1nc(-c2cc(F)c(Cl)cc2F)c(F)c(N)c1OC [Compound 39] |  |  |  |  |  |  |  | pest or weed control at 70 g/ha [1]: 100%; pest or weed control at 70 g/ha [2]: 0%; pest or weed control at 70 g/ha [3]: 75%; pest or weed control at 70 g/ha [4]: 100%; pest or weed control at 70 g/ha [5]: 80%; pest or weed control at 70 g/ha [6]: 100%; pest or weed control at 70 g/ha [7]: 80%
7 | 148.5 to 150.5 °C | CCc1nc(C(=O)O)c(OC)c(N)c1F [Compound 58] |  |  |  |  |  |  |  | pest or weed control at 280 g/ha [1]: 80%; pest or weed control at 280 g/ha [2]: 0%; pest or weed control at 280 g/ha [3]: 10%; pest or weed control at 280 g/ha [4]: 65%; pest or weed control at 280 g/ha [5]: 60%; pest or weed control at 280 g/ha [6]: 0%; pest or weed control at 280 g/ha [7]: 0%
8 | 75 to 77 °C | COC(=O)c1nc(Cl)c(F)c(N)c1SC [Compound 74, Methyl 4-amino-6-chloro-5-fluoro-3-(methylthio)picolinate] | 0% | 0% | 0% | 0% | 0% | 0% | 0% | 
9 | 109 to 110 °C | COC(=O)c1nc(-c2ccc(Cl)c(F)c2)c(F)c(N)c1OC [Compound 32] | 100% | 0% | 75% | 100% | 95% | 100% | 90% | 

The next lines start with the molecule.

Row | SMILES | melting point | pest or weed control at 140 g/ha [1] | pest or weed control at 140 g/ha [2] | pest or weed control at 140 g/ha [3] | pest or weed control at 140 g/ha [4] | pest or weed control at 140 g/ha [5] | pest or weed control at 140 g/ha [6] | pest or weed control at 140 g/ha [7] | other results
10 | COC(=O)c1nc(-c2ccc(Cl)cc2)cc(N(C)C)c1N [Compound 87, Methyl 3-amino-6-(4-chlorophenyl)-4-(dimethylamino)picolinate] | 153 to 154 °C | 90% | 0% | 0% | 100% | 90% | 90% | 40% | 
11 | COc1c(C(=O)O)nc(-c2ccc(Cl)c(F)c2)c(F)c1N [Compound 49] | 137 °C | 100% | 25% | 90% | 100% | 100% | 100% | 100% | 
12 | COC(=O)c1nc(-c2ccc(Cl)c(OC)c2F)cc(N)c1OC [Compound 5, methyl 4-amino-6-(4-chloro-2-fluoro-3-methoxyphenyl)-3-methoxypicolinate] | 114 to 118 °C |  |  |  |  |  |  |  | pest or weed control at 70 g/ha [1]: 100%; pest or weed control at 70 g/ha [2]: 0%; pest or weed control at 70 g/ha [3]: 60%; pest or weed control at 70 g/ha [4]: 100%; pest or weed control at 70 g/ha [5]: 100%; pest or weed control at 70 g/ha [6]: 20%; pest or weed control at 70 g/ha [7]: 80%
13 | COc1c(C(=O)O)nc(-c2ccc(Cl)c(F)c2F)c(F)c1N [Compound 48] | 151 °C | 100% | 0% | 80% | 100% | 90% | 100% | 90% | 
14 | COc1c(C(=O)O)nc(-c2ccc(I)cc2F)c(F)c1N [Compound 62] | 143 to 145 °C | 100% | 8% | 75% | 100% | 15% | 50% | 100% | 
15 | COc1c(C(=O)O)nc(-c2cc(F)c(Br)cc2F)c(F)c1N [Compound 59] | 147 to 148 °C |  |  |  |  |  |  |  | pest or weed control at 70 g/ha [1]: 100%; pest or weed control at 70 g/ha [2]: 5%; pest or weed control at 70 g/ha [3]: 70%; pest or weed control at 70 g/ha [4]: 100%; pest or weed control at 70 g/ha [5]: 80%; pest or weed control at 70 g/ha [6]: 50%; pest or weed control at 70 g/ha [7]: 100%
16 | COc1c(C(=O)O)nc(-c2ccc3c(c2)OCO3)c(F)c1N [Compound 53] | 223 to 225 °C | 100% | 15% | 75% | 0% | 80% | 100% | 80% | 
17 | COc1c(C(=O)O)nc(-c2ccc(I)c(F)c2F)c(F)c1N [Compound 28] | 145 to 147 °C |  |  |  |  |  |  |  | pest or weed control at 70 g/ha [1]: 100%; pest or weed control at 70 g/ha [2]: 5%; pest or weed control at 70 g/ha [3]: 70%; pest or weed control at 70 g/ha [4]: 100%; pest or weed control at 70 g/ha [5]: 70%; pest or weed control at 70 g/ha [6]: 40%; pest or weed control at 70 g/ha [7]: 80%
18 | CCOC(=O)c1nc(-c2ccc(Cl)c(OC)c2F)cc(N)c1SC [Compound 88, Ethyl 4-amino-6-(4-chloro-2-fluoro-3-methoxyphenyl)-3-(methylthio)picolinate] | 93 to 94 °C | 100% | 0% | 80% | 100% | 100% | 60% | 100% | 
